Results on one molecule are retold here after patent publication US12390455B2, “EZH1/2 dual inhibitor-containing pharmaceutical composition to be used as a combination drug” (DAIICHI SANKYO COMPANY, LIMITED, priority 2018, dated 2025).

Assay in all cases: Cell growth inhibitory activity, Compound A alone and combined with a second medical agent (CellTiter-Glo)
On the technique in general: Cellular ATP, detected with luciferase, serves as a proxy for viable cell number.

One test has as its system MV-4-11. It counts as cell-based, human. The note with it: MV-4-11, AML, MLL-AF4, FLT3-ITD; 7 days culture then 3 days in assay plate. The protocol:
(§1) Cell strains listed in Table 1 and Table 2 were seeded in cell culture plates (for example, 6-well culture plates). DMSO solutions of Compound A diluted to different concentrations or DMSO alone were added such that the concentration of the solvent was 0.1%. The cells were cultured for 7 days. During the culturing, at intervals of about 3 days or 4 days depending on cell proliferation, subculturing was appropriately carried out. In the subculturing, DMSO solutions of Compound A diluted to different concentrations or DMSO alone were added to fresh medium at the same concentration as in initiation of the study. […]
(§2) During the culturing period, the culture conditions were 37° C. and 5% CO2. […] Thereafter, the amount of light emitted from each of the wells was measured by a plate reader (EnVision, PerkinElmer Co., Ltd.). Based on the luminescence of the sample addition group (TS) and the DMSO addition group (CS) for each treatment condition measured on the day of seeding; and the luminescence of the sample addition group (T) and the DMSO addition group (C) for each treatment condition measured on the day of evaluation, the cell growth inhibition rate was calculated in accordance with the following expression: Cell growth inhibition rate %={1−(T−TS)/(C−CS)}×100 […]

For the next test, the system named is KARPAS-422. It counts as cell-based, human. The following applies: KARPAS-422, DLBCL (GCB), EZH2 MT (Y641N); 7 days culture then 3 days in assay plate. The protocol:
as §1, §2

The next test concerns MOLM13. It counts as cell-based. The note with it: MOLM13, AML, MLL-AF9, FLT3-ITD; 7 days culture then 3 days in assay plate. The method, then:
(§3) Cell strains listed in Table 1 and Table 2 were seeded in cell culture plates (for example, 6-well culture plates). DMSO solutions of Compound A diluted to different concentrations or DMSO alone were added such that the concentration of the solvent was 0.1%. The cells were cultured for 7 days. During the culturing, at intervals of about 3 days or 4 days depending on cell proliferation, subculturing was appropriately carried out. In the subculturing, DMSO solutions of Compound A diluted to different concentrations or DMSO alone were added to fresh medium at the same concentration as in initiation of the study.
(§4) The cell strains cultured in the above conditions were seeded in 96-well assay plates and the cells were cultured under a combination of the following conditions: • (i) DMSO solutions of Compound A diluted to different concentrations or DMSO alone were added such that the concentration of the solvent was 0.1%, and • (ii) DMSO solutions of a second medical agent or DMSO alone (if a preparation of a second medical agent was used, the preparation of the second medical agent was diluted with saline and used, or saline alone was used) was added such that the concentration of the solvent was 0.1%.
(§5) During the culturing period, the culture conditions were 37° C. and 5% CO2. On the day when the cells were seeded in a 96-well assay plate (day of seeding) and 3 days later (day of evaluation), a reaction was carried out using CellTiter-Glo 2.0 Assay reagent (Promega KK., #G9241) in accordance with the manual attached thereto. Thereafter, the amount of light emitted from each of the wells was measured by a plate reader (EnVision, PerkinElmer Co., Ltd.). Based on the luminescence of the sample addition group (TS) and the DMSO addition group (CS) for each treatment condition measured on the day of seeding; and the luminescence of the sample addition group (T) and the DMSO addition group (C) for each treatment condition measured on the day of evaluation, the cell growth inhibition rate was calculated in accordance with the following expression: Cell growth inhibition rate %={1−(T−TS)/(C−CS)}×100
(§6) Note that, if the number of cells of a sample addition group on the day of evaluation was lower than that of the day of seeding (T<TS), the cell-killing effect was calculated in accordance with the following expression: Cell-killing rate %=(T−TS)/TS×(−100)
(§7) The cell growth inhibition rate and cell killing rate obtained by calculation were fitted to the Sigmoid Emax model to calculate 100% cell growth inhibitory concentration of each of Compound A alone, a second medical agent alone, and Compound A-second medical agent combinations at different concentrations.
(§8) Based on the 100% cell growth inhibitory concentrations (Compound A alone: D1, second medical agent alone: D2, Compound A when used in combination: d1, second medical agent when used in combination: d2) calculated, the combination index (CI) was calculated in accordance with the following expression: CI=d1/D1+d2/D2 Determination was based on the criteria: if CI<1, a synergetic effect is present; if CI=1, an additive effect is present; and if CI>1, an antagonist effect is present (refer to Adv. Enzyme Regul. 1984, p. 2227-55).

Another test concerns OCI-AML3. It counts as cell-based. The note with it: OCI-AML3, AML, NPM1mt, DNMT3Amt; 7 days culture then 3 days in assay plate. The method, then: as §3, §4, §5, §6, §7, §8
In the next test the test system is OCI-AML2. In kind it is cell-based. The following applies: OCI-AML2, AML, MLL-AF6, DNMT3Amt, FLT3-ITD; 7 days culture then 3 days in assay plate. The protocol:
as §3, §4, §5, §6, §7, §8

For the next test, the system named is OCI-LY3. In kind it is cell-based. The note with it: OCI-LY3, DLBCL (non-GCB), EZH2 WT; 7 days culture then 3 days in assay plate. The method, then:
as §3, §4, §5, §6, §7, §8

A further test deals with OCI-LY7. It counts as cell-based. The following applies: OCI-LY7, DLBCL (GCB), EZH2 WT; 7 days culture then 3 days in assay plate. The method, then:
as §3, §4, §5, §6, §7, §8

The test system of a further test is DB. It counts as cell-based. The note with it: DLBCL (GCB), EZH2 MT (Y641N), 7 days culture then 3 days in assay plate. The method, then:
as §3, §4, §5, §6, §7, §8

The next test deals with DOHH-2. In kind it is cell-based. The note with it: DOHH-2, DLBCL (GCB), EZH2 WT; 7 days culture then 3 days in assay plate. The method, then: as §3, §4, §5, §6, §7, §8
The test system of another test is MOLM14. It counts as cell-based. The following applies: MOLM14, AML, MLL-AF9, FLT3-ITD; 7 days culture then 3 days in assay plate. The method, then: as §3, §4, §5, §6, §7, §8
The subject of a further test is REC-1. In kind it is cell-based. The following applies: REC-1, MCL, EZH2 WT; 7 days culture then 3 days in assay plate. The protocol: as §3, §4, §5, §6, §7, §8
A further test concerns GRANTA-519. In kind it is cell-based. The following applies: GRANTA-519, MCL, EZH2 WT; 7 days culture then 3 days in assay plate. The protocol: as §3, §4, §5, §6, §7, §8
The test system of the next test is OCI-LY19. In kind it is cell-based. The following applies: OCI-LY19, DLBCL (GCB), EZH2 WT; 7 days culture then 3 days in assay plate. The protocol:
as §3, §4, §5, §6, §7, §8

In the next test the test system is JeKo-1. It counts as cell-based. The following applies: JeKo-1, MCL, EZH2 WT; 7 days culture then 3 days in assay plate. The protocol: as §3, §4, §5, §6, §7, §8
A further test has as its system OCI-AML5. It counts as cell-based. The following applies: OCI-AML5, AML; 7 days culture then 3 days in assay plate. The method, then:
as §3, §4, §5, §6, §7, §8

A further test deals with SU-DHL-2. In kind it is cell-based. The following applies: SU-DHL-2, DLBCL (non-GCB), EZH2 WT; 7 days culture then 3 days in assay plate. The method, then: as §3, §4, §5, §6, §7, §8

In the case of `Cc1cc(C)c(CNC(=O)c2cc(Cl)c3c(c2C)O[C@@](C)([C@H]2CC[C@H](N(C)C)CC2)O3)c(=O)[nH]1` [Compound A, (2R)-7-chloro-2-[trans-4-(dimethylamino)cyclohexyl]-N-[(4,6-dimethyl-2-oxo-1,2-dihydropyridin-3-yl)methyl]-2,4-dimethyl-1,3-benzodioxol-5-carboxamide p-toluenesulfonate], the “Cpd A GI100 (100% cell growth inhibitory concentration)” value in the test on MV-4-11 is listed as over 100 nM; in the test with KARPAS-422, 5.7 nM; in the test on MOLM13 it was 97 nM; with OCI-AML3, over 1000 nM; in the test on OCI-AML2 it was 647 nM; in the test with OCI-LY3 it was over 1000 nM. Besides, the “Cpd A GI100 (100% cell growth inhibitory concentration)” value is listed as 90 nM in the test with OCI-LY7; over 100 nM with DB; 17 nM in the test on DOHH-2; over 1000 nM in the test on MOLM14; 170 nM in the test on REC-1; 53 nM with GRANTA-519. Also, the “Cpd A GI100 (100% cell growth inhibitory concentration)” value with OCI-LY19 is over 1000 nM; with JeKo-1 it was 8.1 nM; in the test on OCI-AML5 it was over 5 µM; in the test with SU-DHL-2, 4.9 nM.
